# Experimental data: patent US20260209211A1, “CYCLIN K DEGRADER AND USE THEREOF” (ADLAI NORTYE BIOPHARMA CO., LTD., priority 2022, published 2026)
# Like-named read-outs stand apart in the source and are kept apart here.
# Tests used:
# [1] = test system: HGC27 (Human Gastric Cancer Cell); experiment: Bioactivity assay for HGC27 cell growth inhibition (CellTiter-Glo); type: cell-based; conditions: read-out: HGC27 CTG IC50
# Procedure: This detection method is used to evaluate the biological activity of the compounds of the present disclosure at the cellular level.
# (§1) HGC27 cells (purchased from the Chinese Academy of Sciences) were harvested, resuspended in complete medium and adjusted to a cell density of 0.2×10^6 cells per ml. The cell suspension was added to a 96-well plate at a volume of 100 μL per well and cultured overnight in a 37° C., 5% CO2 incubator. Prepare the test compound and add it to the cell plate so that the highest concentration of the compound is 10 μM. Set 8 concentration points according to 3-fold dilution. At the same time, 100% inhibition control wells were set, that is, wells with no cells but only an equal volume of complete culture medium; and 0% inhibition control wells, that is, wells with cells added with 0.1% DMSO. The cell plate was cultured at 37° C. and 5% CO2 for 24 hours. Remove the cell culture plate and add 25 μl CellTiter-Glo® Luminescent Cell Viability Reagent (promega cat #G7573) to each well. Incubate in the dark for 10 minutes and then transfer 100 μL to a white plate and use Molecular Devices SpectraMax i3 to detect chemiluminescence. The inhibition rate was calculated using the following formula for data processing: compound inhibition rate=(0% inhibition control well signal−compound treatment well signal)/(0% inhibition control well signal−100% inhibition control well signal)*100%. The calculated data were fitted with four parameters using GraphPad Prism software and the corresponding IC50 was calculated.
# [2] = test system: NCI-N87 (Human Gastric Cancer Cell); experiment: Bioactivity detection of NCI-N87 cell growth inhibition (CellTiter-Glo); type: cell-based; conditions: NCI-N87 cells, 72 hours, highest concentration 10 μM, read-out: N87 CTG IC50
# Procedure: This detection method is used to evaluate the biological activity of the compounds described in this disclosure at the cellular level.
# as §1, with “NCI-N87” for “HGC27”, “0.1×10^6” for “0.2×10^6”, “72” for “24”, “CellTiter-Glo” for “CellTiter-Glo®”, “signal)[…].” for “signal)*100%.”
# [3] = HGC-27, HGC27 cells, 24 hours, CellTiter-Glo, highest concentration 10 μM
Compound,"IC50 [1, 3] [nM]",IC50 [2] [nM],"IC50 ([1]; HGC-27, 24 h) [nM]"
CC[C@@H](Nc1nc(NCc2ccc3c(c2)[nH]c2c(CNC(C)=O)ccnc23)ncc1C(F)(F)F)C(N)=O [Compound 47],266,,
CC(C)[C@@H](Nc1nc(NCc2ccc3c(c2)[nH]c2c(CN)ccnc23)ncc1C(F)(F)F)C(N)=O [Compound 48],53,20,
FC(F)(F)c1cnc(NCc2ccc3c(c2)nn2ccncc32)nc1OC1COC1 [Compound 49],,,510
CC(C)[C@@H](Nc1nc(NCc2ccc3c(c2)nn2c(CO)ccnc32)ncc1C(F)(F)F)C(N)=O [Compound 50],257,,
NCc1ccnc2c1[nH]c1cc(CNc3ncc(C(F)(F)F)c(N[C@@H](C(N)=O)C4CCCC4)n3)ccc12 [Compound 52],39,32,
CCC[C@@H](Nc1nc(NCc2ccc3c(c2)[nH]c2c(CN)ccnc23)ncc1C(F)(F)F)C(N)=O [Compound 54],32,32,
CC(C)(C)[C@@H](Nc1nc(NCc2ccc3c(c2)[nH]c2c(CN)ccnc23)ncc1C(F)(F)F)C(N)=O [Compound 55],,19,26
CO[C@@H](C)[C@@H](Nc1nc(NCc2ccc3c(c2)[nH]c2c(CN)ccnc23)ncc1C(F)(F)F)C(N)=O [Compound 57],14,11,
CC(C)(O)[C@@H](Nc1nc(NCc2ccc3c(c2)[nH]c2c(CN)ccnc23)ncc1C(F)(F)F)C(N)=O [Compound 58],114,58,
C[C@@H](O)[C@@H](C)Nc1nc(NCc2ccc3c(c2)nn2c(CO)ccnc32)ncc1C(F)(F)F [Compound 60],13,1.8,
CC[C@@H](Nc1nc(NCc2ccc3c(c2)nn2c(CN)ccnc32)ncc1C(F)(F)F)C(N)=O [Compound 62],70,48,
C[C@@H](O)[C@@H](C)Nc1nc(NCc2ccc3c(c2)nn2c(CN)ccnc32)ncc1C(F)(F)F [Compound 63],20,15,
CO[C@@H](C)[C@@H](Nc1nc(NCc2ccc3c(c2)[nH]c2c(C#N)ccnc23)ncc1C(F)(F)F)C(N)=O [Compound 67],14,2.5,
C[C@@H](O)[C@@H](CO)Nc1nc(NCc2ccc3c(c2)[nH]c2c(C#N)ccnc23)ncc1C(F)(F)F [Compound 73],6,3,
N#Cc1ccnc2c3ccc(CNc4ncc(C(F)(F)F)c(N[C@@H]5CNCC[C@@H]5O)n4)cc3nn12 [Compound 96],110,,
CC[C@@H](Nc1nc(NCc2ccc3c(c2)[nH]c2c(CO)ccnc23)ncc1C(F)(F)F)C(=O)NC [Compound 99],,117,
CC[C@@H](Nc1nc(NCc2ccc3c(c2)[nH]c2c(CO)ccnc23)ncc1C(F)(F)F)C(=O)N(C)C [Compound 100],,112,

# Now from value to compound, other results behind:
"IC50 [1, 3] [nM]",IC50 [2] [nM],Compound,"IC50 ([1]; HGC-27, 24 h) [nM]"
20,13,NCc1ccnc2c1[nH]c1cc(CNc3ncc(C(F)(F)F)c(N[C@@H](C(N)=O)C4CC4)n3)ccc12 [Compound 42],
89,,FC(F)(F)c1cnc(NCc2ccc3c(c2)[nH]c2ncccc23)nc1OC1COC1 [Compound 45],
79,,C[C@@H](Nc1nc(NCc2ccc3c(c2)[nH]c2c(CO)ccnc23)ncc1C(F)(F)F)C(N)=O [Compound 46],
145,,FC(F)(F)c1cnc(NCc2ccc3c(c2)nc2cccnn23)nc1OC1COC1 [Compound 51],
29,48,NCc1ccnc2c1[nH]c1cc(CNc3ncc(C(F)(F)F)c(N[C@H](CC4CC4)C(N)=O)n3)ccc12 [Compound 53],
25,30,NCc1ccnc2c1[nH]c1cc(CNc3ncc(C(F)(F)F)c(N[C@@H](C(N)=O)C4CCC4)n3)ccc12 [Compound 56],
36,1,Cc1ccnc2c1[nH]c1cc(CNc3ncc(C(F)(F)F)c(N[C@H](C)[C@@H](C)O)n3)ccc12 [Compound 68],
112,13,CC[C@@H](Nc1nc(NCc2ccc3c(c2)[nH]c2c(C)ccnc23)ncc1C(F)(F)F)C(N)=O [Compound 70],
68,8.6,CO[C@@H](C)[C@H](C#N)Nc1nc(NCc2ccc3c(c2)[nH]c2c(CO)ccnc23)ncc1C(F)(F)F [Compound 71],
48,,N#Cc1ccnc2c1[nH]c1cc(CNc3ncc(C(F)(F)F)c(N[C@@H]4CN(C(=O)CO)CC[C@@H]4O)n3)ccc12 [Compound 92],
